Experimental data taken from ChEMBL document CHEMBL5653615 (J Biol Chem, 2013).

Legend:
[1] = molecular target: Calcium/calmodulin-dependent protein kinase kinase 1 (Homo sapiens) (UniProt Q8N5S9); assay: Inhibition of human CAMKK1 at 18.6 nM by HotSpot assay relative to control
[2] = molecular target: Ephrin type-A receptor 4 (Homo sapiens) (UniProt P54764); assay: Inhibition of human EPHA4 at 18.6 nM by HotSpot assay relative to control
[3] = molecular target: Receptor tyrosine-protein kinase erbB-4 (Homo sapiens) (UniProt Q15303); assay: Inhibition of human ERBB4 at 18.6 nM by HotSpot assay relative to control
Sequence of Receptor tyrosine-protein kinase erbB-4 (Homo sapiens) (Q15303 whole entry): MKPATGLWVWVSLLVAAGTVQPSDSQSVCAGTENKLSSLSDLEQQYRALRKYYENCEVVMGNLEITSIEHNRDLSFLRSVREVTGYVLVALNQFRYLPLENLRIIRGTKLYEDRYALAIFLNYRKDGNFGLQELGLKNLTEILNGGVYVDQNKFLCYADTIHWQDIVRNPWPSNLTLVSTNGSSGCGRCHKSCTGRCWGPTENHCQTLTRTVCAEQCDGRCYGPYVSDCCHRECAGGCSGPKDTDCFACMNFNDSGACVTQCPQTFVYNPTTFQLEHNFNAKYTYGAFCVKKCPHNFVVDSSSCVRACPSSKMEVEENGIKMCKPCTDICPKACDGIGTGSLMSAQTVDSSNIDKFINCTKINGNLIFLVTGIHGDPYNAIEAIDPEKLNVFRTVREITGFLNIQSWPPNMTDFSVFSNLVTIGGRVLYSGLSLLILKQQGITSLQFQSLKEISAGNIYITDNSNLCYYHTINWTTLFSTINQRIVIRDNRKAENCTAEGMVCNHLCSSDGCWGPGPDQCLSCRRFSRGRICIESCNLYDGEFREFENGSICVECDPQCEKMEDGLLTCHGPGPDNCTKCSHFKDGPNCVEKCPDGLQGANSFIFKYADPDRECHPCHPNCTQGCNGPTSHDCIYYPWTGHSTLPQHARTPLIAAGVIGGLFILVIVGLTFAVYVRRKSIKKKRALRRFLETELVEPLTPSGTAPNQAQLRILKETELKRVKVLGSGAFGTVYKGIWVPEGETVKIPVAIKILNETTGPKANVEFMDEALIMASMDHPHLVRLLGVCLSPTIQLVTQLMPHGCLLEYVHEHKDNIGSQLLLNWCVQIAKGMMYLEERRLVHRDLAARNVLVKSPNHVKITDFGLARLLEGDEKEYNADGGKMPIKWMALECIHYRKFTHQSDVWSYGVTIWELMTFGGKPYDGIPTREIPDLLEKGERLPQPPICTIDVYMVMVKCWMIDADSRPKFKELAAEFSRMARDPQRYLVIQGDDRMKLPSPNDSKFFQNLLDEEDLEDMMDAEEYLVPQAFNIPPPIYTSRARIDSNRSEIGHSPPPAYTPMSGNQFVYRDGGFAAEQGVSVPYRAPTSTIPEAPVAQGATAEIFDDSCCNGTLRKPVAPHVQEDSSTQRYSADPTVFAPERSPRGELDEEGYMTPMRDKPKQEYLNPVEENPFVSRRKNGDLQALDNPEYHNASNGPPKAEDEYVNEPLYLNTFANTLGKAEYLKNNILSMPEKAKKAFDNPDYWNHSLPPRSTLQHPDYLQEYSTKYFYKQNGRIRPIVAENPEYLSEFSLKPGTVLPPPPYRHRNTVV

[4] = molecular target: T1, Mitogen-activated protein kinase 12 (Homo sapiens) (UniProt P53778); assay: Inhibition of human P38g at 18.6 nM by HotSpot assay relative to control
T1 sequence (whole entry): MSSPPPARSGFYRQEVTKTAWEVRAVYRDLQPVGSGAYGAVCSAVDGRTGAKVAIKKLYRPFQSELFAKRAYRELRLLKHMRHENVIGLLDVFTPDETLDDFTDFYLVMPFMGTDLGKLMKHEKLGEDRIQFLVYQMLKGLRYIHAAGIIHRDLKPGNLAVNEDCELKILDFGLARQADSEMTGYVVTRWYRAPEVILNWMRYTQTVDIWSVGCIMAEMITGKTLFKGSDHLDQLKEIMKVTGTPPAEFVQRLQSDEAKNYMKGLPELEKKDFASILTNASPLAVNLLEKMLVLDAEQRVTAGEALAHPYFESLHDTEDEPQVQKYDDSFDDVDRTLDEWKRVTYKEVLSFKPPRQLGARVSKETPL

[5] = molecular target: T2, cGMP-dependent protein kinase 2 (Homo sapiens) (UniProt Q13237); assay: Inhibition of human PRKG2 at 18.6 nM by HotSpot assay relative to control
T2 sequence (whole entry): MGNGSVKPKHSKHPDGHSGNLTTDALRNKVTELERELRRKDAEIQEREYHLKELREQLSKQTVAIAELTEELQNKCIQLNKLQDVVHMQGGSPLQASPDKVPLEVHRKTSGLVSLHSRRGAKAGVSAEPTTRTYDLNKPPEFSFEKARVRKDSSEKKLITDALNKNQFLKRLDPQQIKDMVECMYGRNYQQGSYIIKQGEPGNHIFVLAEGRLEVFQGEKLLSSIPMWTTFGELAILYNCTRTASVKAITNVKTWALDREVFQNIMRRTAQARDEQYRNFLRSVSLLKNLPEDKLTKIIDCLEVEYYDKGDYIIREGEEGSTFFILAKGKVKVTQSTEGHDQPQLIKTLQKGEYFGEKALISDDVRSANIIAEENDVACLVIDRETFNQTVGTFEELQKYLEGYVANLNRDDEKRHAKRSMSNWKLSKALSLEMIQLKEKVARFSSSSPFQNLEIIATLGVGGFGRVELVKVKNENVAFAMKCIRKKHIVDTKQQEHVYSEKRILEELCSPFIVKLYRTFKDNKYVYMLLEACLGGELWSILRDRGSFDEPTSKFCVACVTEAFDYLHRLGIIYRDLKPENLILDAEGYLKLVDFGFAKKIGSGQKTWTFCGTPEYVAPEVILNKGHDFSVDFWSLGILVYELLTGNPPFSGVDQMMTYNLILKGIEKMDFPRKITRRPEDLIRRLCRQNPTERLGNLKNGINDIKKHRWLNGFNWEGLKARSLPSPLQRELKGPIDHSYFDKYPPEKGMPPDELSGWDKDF

[6] = molecular target: Receptor-interacting serine/threonine-protein kinase 2 (Homo sapiens) (UniProt O43353); assay: Inhibition of human RIPK2 at 18.6 nM by HotSpot assay relative to control
Sequence of Receptor-interacting serine/threonine-protein kinase 2 (Homo sapiens) (O43353 whole entry): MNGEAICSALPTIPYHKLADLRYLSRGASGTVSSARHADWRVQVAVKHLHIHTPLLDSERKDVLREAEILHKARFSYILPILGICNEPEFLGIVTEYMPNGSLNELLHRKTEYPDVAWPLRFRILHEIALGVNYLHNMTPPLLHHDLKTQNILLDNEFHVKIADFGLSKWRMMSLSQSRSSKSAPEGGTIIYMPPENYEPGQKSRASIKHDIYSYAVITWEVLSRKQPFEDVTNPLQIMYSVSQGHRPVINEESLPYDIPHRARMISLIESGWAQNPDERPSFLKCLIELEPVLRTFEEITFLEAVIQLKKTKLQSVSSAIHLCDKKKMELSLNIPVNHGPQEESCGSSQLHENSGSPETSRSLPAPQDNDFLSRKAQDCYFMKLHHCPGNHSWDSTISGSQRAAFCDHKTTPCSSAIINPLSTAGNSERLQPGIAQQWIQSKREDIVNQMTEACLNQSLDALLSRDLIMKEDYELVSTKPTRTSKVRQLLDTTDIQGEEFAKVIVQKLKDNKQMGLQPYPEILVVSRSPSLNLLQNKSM

Homo sapiens = organism: Homo sapiens; assay: Inhibition of human TAO1 at 18.6 nM by HotSpot assay relative to control
[7] = molecular target: RAC-beta serine/threonine-protein kinase (Homo sapiens) (UniProt P31751); assay: Inhibition of human AKT2 at 1.82 nM by HotSpot assay relative to control
Sequence of RAC-beta serine/threonine-protein kinase (Homo sapiens) (P31751 whole entry): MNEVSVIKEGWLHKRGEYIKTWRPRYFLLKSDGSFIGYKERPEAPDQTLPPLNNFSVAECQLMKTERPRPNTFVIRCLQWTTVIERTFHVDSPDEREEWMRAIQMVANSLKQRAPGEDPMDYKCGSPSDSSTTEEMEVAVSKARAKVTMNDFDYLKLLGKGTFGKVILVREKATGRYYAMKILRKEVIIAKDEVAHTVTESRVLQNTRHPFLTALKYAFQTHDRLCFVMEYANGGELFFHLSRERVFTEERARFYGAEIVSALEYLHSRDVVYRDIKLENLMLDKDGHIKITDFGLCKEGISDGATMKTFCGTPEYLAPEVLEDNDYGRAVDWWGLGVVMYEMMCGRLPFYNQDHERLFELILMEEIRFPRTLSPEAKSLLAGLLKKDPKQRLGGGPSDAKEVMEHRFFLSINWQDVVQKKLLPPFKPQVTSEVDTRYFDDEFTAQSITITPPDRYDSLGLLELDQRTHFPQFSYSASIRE

[8] = molecular target: T3, Cytoplasmic tyrosine-protein kinase BMX (Homo sapiens) (UniProt P51813); assay: Inhibition of human BMX at 1.82 nM by HotSpot assay relative to control
T3 sequence (whole entry): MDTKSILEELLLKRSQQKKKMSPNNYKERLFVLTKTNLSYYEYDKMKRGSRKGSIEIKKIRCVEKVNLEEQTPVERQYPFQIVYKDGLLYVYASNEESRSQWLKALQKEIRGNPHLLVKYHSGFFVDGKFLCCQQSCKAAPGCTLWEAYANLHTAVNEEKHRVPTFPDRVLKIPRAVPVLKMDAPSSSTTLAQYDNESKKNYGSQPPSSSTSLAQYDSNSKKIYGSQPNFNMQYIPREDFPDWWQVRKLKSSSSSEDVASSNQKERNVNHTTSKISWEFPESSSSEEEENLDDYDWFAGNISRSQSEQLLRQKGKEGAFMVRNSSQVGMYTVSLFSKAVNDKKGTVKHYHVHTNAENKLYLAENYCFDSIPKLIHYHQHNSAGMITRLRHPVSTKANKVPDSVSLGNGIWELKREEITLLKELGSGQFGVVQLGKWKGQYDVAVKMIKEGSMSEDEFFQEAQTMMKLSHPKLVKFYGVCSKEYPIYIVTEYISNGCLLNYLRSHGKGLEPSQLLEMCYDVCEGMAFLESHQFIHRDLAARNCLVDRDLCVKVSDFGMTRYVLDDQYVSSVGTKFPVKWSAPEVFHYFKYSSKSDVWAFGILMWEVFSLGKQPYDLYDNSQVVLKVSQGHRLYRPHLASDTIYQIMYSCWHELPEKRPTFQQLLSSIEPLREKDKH

[9] = molecular target: T4, Serine/threonine-protein kinase Chk1 (Homo sapiens) (UniProt O14757); assay: Inhibition of human CHK1 at 1.82 nM by HotSpot assay relative to control
T4 sequence (whole entry): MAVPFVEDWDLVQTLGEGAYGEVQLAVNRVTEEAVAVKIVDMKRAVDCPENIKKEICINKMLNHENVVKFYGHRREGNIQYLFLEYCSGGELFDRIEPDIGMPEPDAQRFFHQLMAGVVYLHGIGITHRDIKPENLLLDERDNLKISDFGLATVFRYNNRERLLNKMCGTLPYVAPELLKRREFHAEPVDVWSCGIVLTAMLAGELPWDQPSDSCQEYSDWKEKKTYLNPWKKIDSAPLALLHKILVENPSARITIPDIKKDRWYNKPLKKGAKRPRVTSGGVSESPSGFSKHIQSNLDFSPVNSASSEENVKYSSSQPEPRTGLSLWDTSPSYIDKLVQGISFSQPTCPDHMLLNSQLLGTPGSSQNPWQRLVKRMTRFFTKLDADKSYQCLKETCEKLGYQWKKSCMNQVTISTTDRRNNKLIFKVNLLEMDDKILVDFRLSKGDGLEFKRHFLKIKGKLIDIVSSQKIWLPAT

[10] = molecular target: Tyrosine-protein kinase JAK1 (Homo sapiens) (UniProt P23458); assay: Inhibition of human JAK1 at 1.82 nM by HotSpot assay relative to control
Sequence of Tyrosine-protein kinase JAK1 (Homo sapiens) (P23458 whole entry): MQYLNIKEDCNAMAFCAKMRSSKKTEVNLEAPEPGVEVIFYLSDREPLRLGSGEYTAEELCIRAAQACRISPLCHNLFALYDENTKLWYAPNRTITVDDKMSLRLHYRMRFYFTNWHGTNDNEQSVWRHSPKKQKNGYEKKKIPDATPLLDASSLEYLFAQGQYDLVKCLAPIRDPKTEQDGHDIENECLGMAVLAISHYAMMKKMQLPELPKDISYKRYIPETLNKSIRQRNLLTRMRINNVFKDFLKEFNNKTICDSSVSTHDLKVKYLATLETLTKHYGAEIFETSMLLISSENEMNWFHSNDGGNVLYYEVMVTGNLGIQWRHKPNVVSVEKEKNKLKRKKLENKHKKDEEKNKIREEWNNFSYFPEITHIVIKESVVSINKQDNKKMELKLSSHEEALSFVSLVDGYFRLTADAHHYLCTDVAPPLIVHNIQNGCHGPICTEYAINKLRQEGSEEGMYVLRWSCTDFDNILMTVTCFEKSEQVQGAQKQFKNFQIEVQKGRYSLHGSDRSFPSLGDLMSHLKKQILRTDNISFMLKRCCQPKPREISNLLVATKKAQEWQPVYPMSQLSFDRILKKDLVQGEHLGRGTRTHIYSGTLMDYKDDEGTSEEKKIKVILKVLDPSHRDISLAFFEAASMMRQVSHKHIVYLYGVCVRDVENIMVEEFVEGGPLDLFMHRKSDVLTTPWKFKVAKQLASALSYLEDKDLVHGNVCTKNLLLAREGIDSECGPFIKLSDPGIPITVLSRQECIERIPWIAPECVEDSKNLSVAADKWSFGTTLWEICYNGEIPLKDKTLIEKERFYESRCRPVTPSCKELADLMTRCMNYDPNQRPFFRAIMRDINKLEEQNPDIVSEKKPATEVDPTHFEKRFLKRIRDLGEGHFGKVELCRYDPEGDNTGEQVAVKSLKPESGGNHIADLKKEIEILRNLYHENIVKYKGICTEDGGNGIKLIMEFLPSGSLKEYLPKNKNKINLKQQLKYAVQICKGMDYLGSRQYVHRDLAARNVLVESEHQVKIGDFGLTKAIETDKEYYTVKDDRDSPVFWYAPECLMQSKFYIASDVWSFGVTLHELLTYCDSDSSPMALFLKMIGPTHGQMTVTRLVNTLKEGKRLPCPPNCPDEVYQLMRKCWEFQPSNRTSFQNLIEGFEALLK

[11] = molecular target: MAP kinase-interacting serine/threonine-protein kinase 2 (Homo sapiens) (UniProt Q9HBH9); assay: Inhibition of human MNK2 at 1.82 nM by HotSpot assay relative to control
Sequence of MAP kinase-interacting serine/threonine-protein kinase 2 (Homo sapiens) (Q9HBH9 whole entry, looked up): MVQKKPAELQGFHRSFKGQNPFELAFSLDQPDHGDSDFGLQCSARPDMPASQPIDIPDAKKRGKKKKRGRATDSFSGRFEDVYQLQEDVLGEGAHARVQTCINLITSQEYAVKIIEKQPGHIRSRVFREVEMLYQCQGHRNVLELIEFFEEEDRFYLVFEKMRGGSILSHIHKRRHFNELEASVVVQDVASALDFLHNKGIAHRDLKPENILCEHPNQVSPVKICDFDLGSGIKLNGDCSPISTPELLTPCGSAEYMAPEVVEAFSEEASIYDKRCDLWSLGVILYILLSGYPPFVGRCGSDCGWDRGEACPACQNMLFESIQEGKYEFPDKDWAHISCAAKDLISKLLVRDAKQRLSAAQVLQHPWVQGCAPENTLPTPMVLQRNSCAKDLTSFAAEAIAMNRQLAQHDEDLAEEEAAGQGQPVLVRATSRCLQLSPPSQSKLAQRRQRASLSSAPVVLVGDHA

Sequence of Calcium/calmodulin-dependent protein kinase kinase 1 (Homo sapiens) (Q8N5S9 whole entry, looked up): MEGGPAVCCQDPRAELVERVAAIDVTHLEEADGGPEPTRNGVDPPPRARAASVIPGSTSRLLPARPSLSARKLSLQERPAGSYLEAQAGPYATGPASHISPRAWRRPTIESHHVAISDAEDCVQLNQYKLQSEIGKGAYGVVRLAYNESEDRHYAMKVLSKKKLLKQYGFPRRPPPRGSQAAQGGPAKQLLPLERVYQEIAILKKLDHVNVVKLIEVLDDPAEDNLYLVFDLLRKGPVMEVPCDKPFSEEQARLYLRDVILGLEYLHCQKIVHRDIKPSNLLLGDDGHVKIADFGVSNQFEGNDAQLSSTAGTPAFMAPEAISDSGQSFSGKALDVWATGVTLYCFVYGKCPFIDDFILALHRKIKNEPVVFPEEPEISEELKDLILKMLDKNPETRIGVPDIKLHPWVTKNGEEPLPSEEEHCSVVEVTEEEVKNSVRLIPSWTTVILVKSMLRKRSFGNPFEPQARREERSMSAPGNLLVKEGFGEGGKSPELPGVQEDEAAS

Row | inhibition [1] | inhibition [2] | inhibition [3] | inhibition [4] | inhibition [5] | inhibition [6] | inhibition (Homo sapiens) | inhibition [7] | inhibition [8] | inhibition [9] | inhibition [10] | inhibition [11] | Compound
1 | 5.54% | -8.39% | 2.92% | -7.84% | -3.76% | 12.1% | 1.8% | – | – | – | – | – | C[C@]1(O)C[C@@H](c2nc(-c3ccc4ccc(-c5ccccc5)nc4c3)c3c(N)nccn32)C1
2 | – | – | – | – | – | – | – | -0.4% | -1.37% | -4.39% | -5.65% | -4.8% | C[C@@]1(C(=O)Nc2ccc(F)nc2)CCCN1c1nc(Nc2cc(C3CC3)n[nH]2)c2cccn2n1
